# Measured values as given in US8895744B2, “Alfa-carboline inhibitors of NPM-ALK, RET, and Bcr-Abl” (Universita' Degli Studi di Milano-Bicocca, priority 2008, dated 2014).
# Key:
# [1] = target: T1, Recombinant Abl T315I protein (Homo sapiens, UniProt P00519, T315I); experiment: Abl T315I mutant kinase inhibitory activity, ELISA-based in vitro kinase assay; assay type: biochemical; conditions: purified Abl T315I, 0.3 mM ATP
# T1 construct: made in house; host or cells: Sf9 cells (baculovirus)
# Experimental: (§1) Recombinant ALK kinase was expressed in Sf9 insect cells using the pBlueBacHis2C baculovirus vector system and purified using an anion exchange Fast Flow Q-sepharose column (Amersham-Pharmacia Biotech) followed by HiTrap™-nickel affinity column (Amersham-Pharmacia Biotech). Purified ALK protein was used to screen inhibitors in the ELISA-based kinase assay. A Nunc Immuno 96 well plate was incubated overnight at 37° C. with coating solution (125 μL/well) containing ALK peptide substrate ([…]) (SEQ ID NO: 1) at various concentrations in PBS. Wells were then washed with 200 μL of wash buffer (PBS-Tween 0.05%) and left to dry for at least 2 h at 37° C. The kinase reaction was performed in the presence of 50 mM Tris pH 7.5, 5 mM MnCl2, 5 mM MgCl2, 0.3 mM ATP and purified rALK in a total volume of 100 μL/well at 30° C. for 15 min. For inhibitor testing the reaction mix was preincubated with the inhibitor or solvent control for 10 min at room temperature before transferring to the ELISA plate. After the reaction wells were washed 5 times with 200 μL of wash buffer. Phosphorylated peptide was detected using 100 μL/well of a mouse monoclonal anti-phosphotyrosine antibody (clone 4G10 Upstate Biotech Ltd) diluted 1:2000 in PBS+4% BSA. After 30 min incubation at room temperature the antibody was removed and wells were washed as described above. 100 μL of a secondary antibody (anti-mouse IgG, Horseradish Peroxidase linked whole antibody, Amersham Pharmacia Biotech) diluted 1:1000 in PBS+4% BSA was added to each well and the plate was incubated again for 30 min at room temperature before washing as above. The plate was developed using 100 μL/well TMB Substrate Solution (Endogen) and the reaction was stopped by adding an equiv.ual volume of H2SO4 0.36 M. Finally, the absorbance was read at 450 nm using an Ultrospec® 300 spectrophotometer (Amersham-Pharmacia Biotech). The concentration of the test solution showing 50% inhibition as compared with the control was expressed as IC50 (μM).
# 37. Abl T315I Mutant Kinase Inhibitory Activity
# (§2) Method: ELISA-Based In Vitro Kinase Assay
# Recombinant Abl T315I protein was expressed in Sf9 cells using the pBlueBacHis2C baculovirus expression vector. Abl T315I was purified using an anion exchange Fast Flow Q-sepharose column (Amersham-Pharmacia Biotech) followed by HiTrap™-nickel affinity column (Amersham-Pharmacia Biotech). Purified Abl T315I was used in the ELISA-based kinase assay to screen inhibitors as described above. The kinase reaction was performed in the presence of 50 mM Tris pH 7.5, 1 mM MnCl2, 5 mM MgCl2, 0.3 mM ATP, peptide substrate ([…]) (SEQ ID NO: 1) and purified Abl T315I. The concentration of the test solution showing 50% inhibition as compared with the control was expressed as IC50 (μM).
# Recombinant ALK kinase = target: T2, Recombinant ALK kinase (Homo sapiens, UniProt Q9UM73); experiment: ALK kinase inhibitory activity, ELISA-based in vitro kinase assay; assay type: biochemical; conditions: purified rALK, 0.3 mM ATP, read-out: ALK IC50
# T2 construct: made in house; host or cells: Sf9 insect cells (baculovirus)
# T2 sequence (Q9UM73 19-1620): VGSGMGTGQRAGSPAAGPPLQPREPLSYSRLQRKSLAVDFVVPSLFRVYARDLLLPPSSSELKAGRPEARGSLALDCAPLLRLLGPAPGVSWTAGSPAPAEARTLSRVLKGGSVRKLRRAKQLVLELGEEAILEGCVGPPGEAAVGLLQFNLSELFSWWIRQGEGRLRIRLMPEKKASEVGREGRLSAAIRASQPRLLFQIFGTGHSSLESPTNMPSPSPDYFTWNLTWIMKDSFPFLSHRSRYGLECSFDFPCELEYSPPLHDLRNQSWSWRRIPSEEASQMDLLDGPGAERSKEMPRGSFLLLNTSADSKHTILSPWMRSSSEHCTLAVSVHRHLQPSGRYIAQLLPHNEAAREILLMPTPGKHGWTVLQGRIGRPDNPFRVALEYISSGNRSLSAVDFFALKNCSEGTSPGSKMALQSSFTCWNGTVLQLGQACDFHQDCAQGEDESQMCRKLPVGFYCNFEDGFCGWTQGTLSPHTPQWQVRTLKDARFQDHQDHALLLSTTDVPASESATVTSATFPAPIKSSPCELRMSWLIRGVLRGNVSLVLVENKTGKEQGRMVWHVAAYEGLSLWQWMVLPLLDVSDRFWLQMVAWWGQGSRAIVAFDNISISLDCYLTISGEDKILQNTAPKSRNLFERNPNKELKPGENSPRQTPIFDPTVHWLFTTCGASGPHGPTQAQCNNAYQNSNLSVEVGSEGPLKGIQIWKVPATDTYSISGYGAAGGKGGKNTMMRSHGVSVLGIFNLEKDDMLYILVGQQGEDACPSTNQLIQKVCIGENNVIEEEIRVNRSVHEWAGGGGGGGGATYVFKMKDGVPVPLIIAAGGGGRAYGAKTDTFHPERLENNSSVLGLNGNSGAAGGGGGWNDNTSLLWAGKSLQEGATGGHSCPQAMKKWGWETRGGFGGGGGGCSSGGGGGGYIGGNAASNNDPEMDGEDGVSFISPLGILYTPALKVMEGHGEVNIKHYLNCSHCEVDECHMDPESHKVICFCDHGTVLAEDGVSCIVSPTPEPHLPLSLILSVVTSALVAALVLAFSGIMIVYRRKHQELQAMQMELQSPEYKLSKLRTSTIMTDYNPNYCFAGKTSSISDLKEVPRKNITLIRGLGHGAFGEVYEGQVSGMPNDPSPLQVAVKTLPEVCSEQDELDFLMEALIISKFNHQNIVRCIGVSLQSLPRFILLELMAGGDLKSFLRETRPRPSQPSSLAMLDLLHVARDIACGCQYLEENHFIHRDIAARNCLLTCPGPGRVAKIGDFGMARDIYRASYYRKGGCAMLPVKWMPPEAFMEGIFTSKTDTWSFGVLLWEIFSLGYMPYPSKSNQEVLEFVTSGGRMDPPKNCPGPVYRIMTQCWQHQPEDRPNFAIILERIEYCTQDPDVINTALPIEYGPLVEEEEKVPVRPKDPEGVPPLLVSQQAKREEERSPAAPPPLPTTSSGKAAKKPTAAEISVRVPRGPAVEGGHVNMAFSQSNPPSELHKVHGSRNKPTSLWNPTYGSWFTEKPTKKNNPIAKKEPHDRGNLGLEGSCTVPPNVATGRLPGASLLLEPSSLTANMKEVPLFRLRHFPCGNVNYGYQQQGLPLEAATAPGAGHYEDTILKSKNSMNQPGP
# Experimental: 36. Alk Kinase Inhibitory Activity
# as §2, §1
# [2] = target: T3, BaF3 cells transformed with the oncogenic fusion protein NPM/ALK (Homo sapiens, UniProt Q9UM73); experiment: Tritiated thymidine uptake cell proliferation assay, BaF3 NPM/ALK; assay type: cell-based; conditions: 3[H]-thymidine uptake, 72 h; read-out: BaF NPM/ALK IC50
# T3 construct: fused on or other part: P06748 (Nucleophosmin)
# T3 sequence (Q9UM73 whole entry, change not shown, the tested form may be a part): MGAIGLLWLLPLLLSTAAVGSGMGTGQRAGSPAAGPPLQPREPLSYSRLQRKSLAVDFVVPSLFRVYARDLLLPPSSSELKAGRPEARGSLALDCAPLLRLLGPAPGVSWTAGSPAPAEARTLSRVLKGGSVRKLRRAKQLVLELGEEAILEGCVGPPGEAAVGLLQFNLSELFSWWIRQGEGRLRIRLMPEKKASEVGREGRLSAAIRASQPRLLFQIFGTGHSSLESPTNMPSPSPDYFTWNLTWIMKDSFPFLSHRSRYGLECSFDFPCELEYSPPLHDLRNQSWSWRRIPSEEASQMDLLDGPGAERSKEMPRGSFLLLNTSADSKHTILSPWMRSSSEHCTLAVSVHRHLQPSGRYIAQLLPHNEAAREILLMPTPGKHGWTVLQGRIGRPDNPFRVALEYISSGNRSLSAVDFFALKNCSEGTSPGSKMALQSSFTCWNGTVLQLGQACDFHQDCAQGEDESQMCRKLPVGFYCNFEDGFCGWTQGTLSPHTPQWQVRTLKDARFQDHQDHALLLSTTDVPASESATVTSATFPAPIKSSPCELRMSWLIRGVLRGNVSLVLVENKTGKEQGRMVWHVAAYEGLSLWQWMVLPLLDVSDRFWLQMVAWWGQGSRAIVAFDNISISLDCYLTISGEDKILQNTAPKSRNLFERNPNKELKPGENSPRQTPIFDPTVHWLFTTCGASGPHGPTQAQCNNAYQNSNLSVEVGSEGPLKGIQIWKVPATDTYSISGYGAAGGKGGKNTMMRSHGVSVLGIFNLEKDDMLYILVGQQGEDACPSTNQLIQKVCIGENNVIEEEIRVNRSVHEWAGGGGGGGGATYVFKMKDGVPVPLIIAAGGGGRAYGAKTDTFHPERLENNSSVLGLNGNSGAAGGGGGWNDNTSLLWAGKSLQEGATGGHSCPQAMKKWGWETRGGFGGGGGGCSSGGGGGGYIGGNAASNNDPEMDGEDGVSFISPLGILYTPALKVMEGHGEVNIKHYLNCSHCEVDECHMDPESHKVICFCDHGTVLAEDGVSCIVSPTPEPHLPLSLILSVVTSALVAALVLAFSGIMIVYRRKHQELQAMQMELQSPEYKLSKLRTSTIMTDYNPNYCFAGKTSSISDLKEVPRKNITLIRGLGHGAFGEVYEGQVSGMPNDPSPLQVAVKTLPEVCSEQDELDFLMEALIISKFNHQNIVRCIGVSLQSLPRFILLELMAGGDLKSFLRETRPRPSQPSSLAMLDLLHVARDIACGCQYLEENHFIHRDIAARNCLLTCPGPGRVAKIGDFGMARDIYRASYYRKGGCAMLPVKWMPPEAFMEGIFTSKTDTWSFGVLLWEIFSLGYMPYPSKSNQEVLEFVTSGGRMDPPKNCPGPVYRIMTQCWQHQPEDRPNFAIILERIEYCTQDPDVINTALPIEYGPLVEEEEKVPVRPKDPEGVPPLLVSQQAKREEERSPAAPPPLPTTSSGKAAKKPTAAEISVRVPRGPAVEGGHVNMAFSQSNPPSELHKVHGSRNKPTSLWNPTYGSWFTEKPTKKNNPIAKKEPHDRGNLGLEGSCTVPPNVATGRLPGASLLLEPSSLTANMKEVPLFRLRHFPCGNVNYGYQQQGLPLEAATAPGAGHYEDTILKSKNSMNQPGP
# Experimental: Inhibition of the proliferation of NPM/ALK positive cells
# (§3) Method: Tritiated Thymidine Uptake Cell Proliferation Assay
# (§4) The following procedure was used with parent untransformed BaF3 cells, BaF3 cells transformed with the oncogenic fusion protein NPM/ALK, NPM/ALK positive SUDHL-1 cells, ALK-negative U937 cells, NPM/ALK positive KARPAS-299 cells. The parent untransformed BaF3 cells and Alk-negative U937 cells are used as controls. Cells were seeded in U-bottomed 96-well plates at 10 000 cells/well in a volume of 100 μL in supplemented medium. In the case of the parent untransformed BaF3 cells, the medium was supplemented with IL-3. Serial dilutions of inhibitors were added to the appropriate wells and volumes adjusted to 200 μL. Controls were treated with the equivalent volume of vehicle, DMSO, alone. Plates were incubated at 37° C. for 72 h. ^3[H]-thymidine (1 μCi/well) was added for the last 16 h of incubation. Cells were harvested on to paper filters and ^3[H]-thymidine incorporation was measured using a β scintillation counter (1430 MicroBeta, Wallac, Turku, Finland). The 50% inhibitory concentration (IC50) was defined as the concentration of inhibitor, expressed in micromolar, that gave a 50% decrease in ^3[H]-thymidine uptake compared with controls.
# [3] = system: parent untransformed BaF3 cells; experiment: Tritiated thymidine uptake cell proliferation assay, parental BaF3 (control); assay type: cell-based; conditions: Mus musculus, 3[H]-thymidine uptake, 72 h, medium with IL-3, read-out: BaF parental IC50
# Experimental: as §3, §4
# as §4, with “protein bcr-abl, Abl-negative” for “protein NPM/ALK, NPM/ALK positive SUDHL-1 cells, ALK-negative”, “cells, or Bcr-abl” for “cells, NPM/ALK”, “positive LAMA-84” for “positive KARPAS-299”, “and Abl-negative” for “and Alk-negative”, “in ^3H-thymidine” for “in ^3[H]-thymidine”
# as §4, with “RET-PTC2, or RET-negative 11937” for “NPM/ALK, NPM/ALK positive SUDHL-1 cells, ALK-negative U937 cells, NPM/ALK positive KARPAS-299”, “RET-negative” for “Alk-negative”
melting point,Structure (SMILES),other results
> 220 °C,"C(=C\c1ccnc2[nH]c3ccccc3c12)/c1ccccc1 [R310, 4-(2′-phenylethenyl)-9H-pyrido[2,3-b]indole]",
,"Clc1cnc2[nH]c3ccc(-c4ccc(CN5CCOCC5)cc4)cc3c2c1 [R313, 3-chloro-6-(4-(morpholin-4-yl)methylphenyl)-9H-pyrido[2,3-b]indole]",IC50 [1]: > 10 µM; IC50 (Recombinant ALK kinase): 8.8 ± 2.7 µM; GI50 [2]: 0.64 µM; IC50 [3]: 0.5 µM
,"O=[N+]([O-])c1cccc(Nc2ccc3c(n2)[nH]c2ccccc23)c1 [R317, N-(3-nitrophenyl)-9H-pyrido[2,3-b]indol-2-amine]",IC50 [1]: 26 µM; IC50 (Recombinant ALK kinase): 8.2 ± 2.1 µM; GI50 [2]: 2.6 µM; IC50 [3]: 6.3 µM
,"O=[N+]([O-])c1ccccc1Nc1ccc2c(n1)[nH]c1ccccc12 [R319, N-(2-nitrophenyl)-9H-pyrido[2,3-b]indol-2-amine]",IC50 [1]: 16 µM; IC50 (Recombinant ALK kinase): 4.7 ± 0.2 µM; GI50 [2]: 11 µM; IC50 [3]: 44 µM
> 295 °C,"O=C(O)c1ccc2[nH]c3ncc(Cl)cc3c2c1 [compound 5, 3-chloro-9H-pyrido[2,3-b]indol-6-carboxylic acid]",
> 295 °C,"Cc1ccc2c(n1)[nH]c1ccc(C(=O)O)cc12 [compound 6, 2-methyl-9H-pyrido[2,3-b]indol-6-carboxylic acid]",
> 220 °C,"Clc1ccc2c(n1)[nH]c1ccc(Br)cc12 [compound 9, 6-bromo-2-chloro-9H-pyrido[2,3-b]indole]",
> 220 °C,"Clc1ccnc2[nH]c3ccc(Br)cc3c12 [compound 10, 6-bromo-4-chloro-9H-pyrido[2,3-b]indole]",
243 °C,"O=C(O)CCC(=O)c1ccc2[nH]c3ncc(Cl)cc3c2c1 [compound 11, 4-(3-Chloro-9H-pyrido[2,3-b]indol-6-yl)-4-oxo-butyric acid]",
280.8 °C,"O=C(O)CCC(=O)c1ccc2[nH]c3nc(Cl)ccc3c2c1 [compound 12, 4-(2-Chloro-9H-pyrido[2,3-b]indol-6-yl)-4-oxo-butyric acid]",
204 to 206 °C,"O=S(=O)(c1ccccc1)n1c2ccc(Br)cc2c2ccc(Cl)nc21 [compound 19, 9-benzenesulfonyl-6-bromo-2-chloro-9H-pyrido[2,3-b]indole]",
242 °C,"O=S(=O)(c1ccccc1)n1c2ccc(Br)cc2c2cc(Cl)cnc21 [compound 20, 9-benzenesulfonyl-6-bromo-3-chloro-9H-pyrido[2,3-b]indole]",
212 to 214 °C,"O=S(=O)(c1ccccc1)n1c2ccc(Br)cc2c2c(Cl)ccnc21 [compound 21, 9-benzenesulfonyl-6-bromo-4-chloro-9H-pyrido[2,3-b]indole]",
> 220 °C,"COc1ccc(-c2ccc3c(c2)c2cc(Cl)cnc2n3S(=O)(=O)c2ccccc2)cc1 [compound 26, 9-benzenesulfonyl-3-chloro-6-(4-methoxyphenyl)-9H-pyrido[2,3-b]indole]",
190 to 192 °C,"O=S(=O)(c1ccccc1)n1c2ccc(/C=C/c3ccccc3)cc2c2cc(Cl)cnc21 [compound 27, 9-benzenesulfonyl-3-chloro-6-(2′-phenylethenyl)-9H-pyrido[2,3-b]indole]",
176 to 178 °C,"COc1ccc(-c2ccc3c(c2)c2ccc(Cl)nc2n3S(=O)(=O)c2ccccc2)cc1 [compound 32, 9-benzenesulfonyl-2-chloro-6-(4-methoxyphenyl)-9H-pyrido[2,3-b]indole]",
209 to 211 °C,"COc1ccc(-c2ccc3c(c2)c2c(Cl)ccnc2n3S(=O)(=O)c2ccccc2)cc1 [compound 34, 9-benzenesulfonyl-4-chloro-6-(4-methoxyphenyl)-9H-pyrido[2,3-b]indole]",
216 to 218 °C,"O=S(=O)(c1ccccc1)n1c2ccc(/C=C/c3ccccc3)cc2c2c(Cl)ccnc21 [compound 35, 9-benzenesulfonyl-4-chloro-6-(2′-phenylethenyl)-9H-pyrido[2,3-b]indole]",
206 to 208 °C,"COc1ccc(-c2ccc3c(c2)c2ccc(-c4ccc(OC)cc4)nc2n3S(=O)(=O)c2ccccc2)cc1 [compound 36, 9-benzenesulfonyl-2,6-di(4-methoxyphenyl)-9H-pyrido[2,3-b]indole]",
162 to 164 °C,"COc1ccc(-c2ccc3c(c2)c2c(-c4ccc(OC)cc4)ccnc2n3S(=O)(=O)c2ccccc2)cc1 [compound 37, 9-benzenesulfonyl-4,6-di(4-methoxyphenyl)-9H-pyrido[2,3-b]indole]",
193 to 195 °C,"COc1ccc(-c2ccc3c(c2)c2ccc(/C=C/c4ccccc4)nc2n3S(=O)(=O)c2ccccc2)cc1 [compound 43, 9-benzenesulfonyl-6-(4-methoxyphenyl)-2-(2′-phenylethenyl)-9H-pyrido[2,3-b]indole]",
190 to 192 °C,"COc1ccc(-c2ccc3c(c2)c2c(/C=C/c4ccccc4)ccnc2n3S(=O)(=O)c2ccccc2)cc1 [compound 45, 9-benzenesulfonyl-6-(4-methoxyphenyl)-4-(2′-phenylethenyl)-9H-pyrido[2,3-b]indole]",
158 to 162 °C,"O=S(=O)(c1ccccc1)n1c2ccc(CCc3ccccc3)cc2c2cc(Cl)cnc21 [compound 61, 9-(benzenesulfonyl)-3-chloro-6-(2′-phenylethyl)-9H-pyrido[2,3-b]indole]",
